Values quoted from earlier work, collected in patent US11913924B2, “Ion generation using modified wetted porous materials” (Purdue Research Foundation, priority 2011, dated 2024).
Like-named read-outs stand apart in the source and are kept apart here.

Tests used:
[1] = in vivo
[2] = therapeutic windows listed in Table 6

Compound | Therapeutic range [2] | further results
CN1C(=O)CC[C@H]1c1cccnc1 [cotinine] |  | half-life [1]: about 16 hours
CN1CCCC1c1cccnc1 (stereo not shown) [nicotine] |  | half-life [1]: about 2 hours
CN(C)CCC=C1c2ccccc2CCc2ccccc21 [amitriptyline] | 50 to 200 ng/mL | 
O=P1(N(CCCl)CCCl)NCCCO1 (stereo not shown) [Cyclophosphamide, cyclophosphamide] |  | Therapeutic range (plasma concentrations, Regenthal et al., J. Clin. Monitor Comp. 1999): 10000 to 25000 ng/mL
CCN(CC)CCNC(=O)c1c(C)[nH]c(/C=C2\C(=O)Nc3ccc(F)cc32)c1C [sunitinib] | 20 to 200 ng/mL | 
CN(C)CCCC1(c2ccc(F)cc2)OCc2cc(C#N)ccc21 (stereo not shown) [citalopram] | 10 to 200 ng/mL | 
CCN(CC)CC(=O)Nc1c(C)cccc1C [lidocaine] | 1,000-6,000 ng mL^−1 | 
